According to patent US12473287B2, “Synthetic co-crystals of anhydrous guanine and process for preparing the same” (EcoCrystal Ltd., priority 2016, dated 2025):
“And” between values parts separate entries of the source, which are not always exact repeats. Identical values can stand only once.

Assays:
[1] = in the reflected direction; known values; cited from earlier work
[2] = Dry storage stability at ambient conditions (FT-IR); type: physicochemical; conditions: stored dry at ambient conditions; FT-IR fresh vs 3 months old
Excerpt: FIG. 5 presents FT-IR spectra, showing fresh guanine monohydrate (top) vs 3 months old guanine monohydrate. Only small differences in the peak intensities are visible after 3 months. The typical signatures of structured water are still present (ν1, and ν3 stretching modes (broad peaks at 3420 and 3200 cm^−1) and ν2 bending mode (1596 cm^−1)).

stability, solid to solid transformation [2] | SMILES | refractive index n [1]
 | Nc1nc2nc[nH]c2c(=O)[nH]1 [Anhydrous guanine, guanine] | 1.83 and 1.81
stable for at least several months | Nc1nc2nc[nH]c2c(=O)[nH]1.O [guanine monohydrate] | 
